# In patent US9328112B2, “Tetracyclic CDK9 kinase inhibitors” (AbbVie Inc., priority 2014, dated 2016):
# Key:
# CDK9/Cyclin T1 = CDK9/Cyclin T1 (Homo sapiens (Human), UniProt P50750); test: CDK9 enzyme assay (LANCE ULight TR-FRET kinase assay); type: biochemical; settings: 1000 μM ATP, 100 nM ULight MBP, kinase reaction 1 hour
# Outline: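 Human CDK9/Cyclin T1 phosphorylating 100 nM ULight-MBP with 1000 μM ATP in HEPES/MgCl2 buffer, 1 h reaction. Stopped with 20 mM EDTA plus 0.5 nM Eu anti-phospho-MBP antibody, incubated 1 h, read by TR-FRET (ex 320 nm, em 615/665 nm).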
# H929 cells = test: Cell viability assay (Cell TiterGlo); type: cell-based; settings: Homo sapiens, NCI-H929, 24 hours at 37° C., Cell TiterGlo luminescence
# Description: The cell viability assay was performed using H929 cells. Cells were seeded in 96-well plates at 10,000 cells/well and, after overnight incubation, treated with compounds in a dose response of 3-fold dilutions from 10 μM to 0.005 μM ([…], 0.1% final DMSO concentration). After 24 hours at 37° C., cell viability was measured using Cell TiterGlo reagent (Promega) with a luminescence reader.
# Sequence of CDK9/Cyclin T1 (P50750 whole entry): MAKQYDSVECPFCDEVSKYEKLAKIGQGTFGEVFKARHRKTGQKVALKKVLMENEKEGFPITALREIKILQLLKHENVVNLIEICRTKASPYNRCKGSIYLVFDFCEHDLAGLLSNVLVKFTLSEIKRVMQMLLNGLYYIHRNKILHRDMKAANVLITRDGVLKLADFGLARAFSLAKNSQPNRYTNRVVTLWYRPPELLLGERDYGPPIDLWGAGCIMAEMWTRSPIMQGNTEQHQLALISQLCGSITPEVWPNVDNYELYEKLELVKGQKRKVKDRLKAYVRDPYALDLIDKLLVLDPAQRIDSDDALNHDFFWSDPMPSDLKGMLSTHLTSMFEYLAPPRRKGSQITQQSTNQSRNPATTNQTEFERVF
# Sequence of CDK9/Cyclin T1 (O60563 whole entry partner): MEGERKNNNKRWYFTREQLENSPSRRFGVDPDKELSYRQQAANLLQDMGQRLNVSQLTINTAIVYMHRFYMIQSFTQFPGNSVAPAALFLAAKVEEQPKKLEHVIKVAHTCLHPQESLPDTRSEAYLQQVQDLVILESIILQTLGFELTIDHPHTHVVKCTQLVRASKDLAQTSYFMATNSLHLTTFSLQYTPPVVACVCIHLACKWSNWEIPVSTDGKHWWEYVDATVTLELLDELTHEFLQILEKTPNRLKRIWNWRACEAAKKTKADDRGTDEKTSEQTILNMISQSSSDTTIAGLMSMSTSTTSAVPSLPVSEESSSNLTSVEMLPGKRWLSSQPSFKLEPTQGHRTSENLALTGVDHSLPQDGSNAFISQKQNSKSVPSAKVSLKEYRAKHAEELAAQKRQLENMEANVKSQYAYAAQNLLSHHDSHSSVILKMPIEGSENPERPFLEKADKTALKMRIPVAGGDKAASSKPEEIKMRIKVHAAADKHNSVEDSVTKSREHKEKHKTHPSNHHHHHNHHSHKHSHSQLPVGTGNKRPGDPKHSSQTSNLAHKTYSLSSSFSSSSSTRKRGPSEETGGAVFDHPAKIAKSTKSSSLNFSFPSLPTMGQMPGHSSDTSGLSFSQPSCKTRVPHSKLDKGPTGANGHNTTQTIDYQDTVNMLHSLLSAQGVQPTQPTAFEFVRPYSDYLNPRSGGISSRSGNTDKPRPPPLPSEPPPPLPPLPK
SMILES,IC50 (CDK9/Cyclin T1) [nM],IC50 (H929 cells) [nM]
"CN1Cc2c(C3=CCN([C@H]4CC[C@H](C(=O)O)CC4)CC3)[nH]c3nccc(c23)-c2cc(F)c(F)cc21 [Example 150, trans-4-[4-(9,10-difluoro-7-methyl-6,7-dihydro-4H-3,4,7-triazadibenzo[cd,f]azulen-5-yl)-3,6-dihydropyridin-1(2H)-yl]cyclohexanecarboxylic acid]",57,28
"CN1Cc2c(C3=C[C@@H]4COC(=O)N4CC3)[nH]c3nccc(c23)-c2cc(F)ccc21 [Example 151, (8aR)-7-(10-fluoro-7-methyl-6,7-dihydro-4H-3,4,7-triazadibenzo[cd,f]azulen-5-yl)-1,5,6,8a-tetrahydro[1,3]oxazolo[3,4-a]pyridin-3-one]",37,190
"CN1Cc2c(C3=C[C@H]4COC(=O)N4CC3)[nH]c3nccc(c23)-c2cc(F)ccc21 [Example 152, (8aS)-7-(10-fluoro-7-methyl-6,7-dihydro-4H-3,4,7-triazadibenzo[cd,f]azulen-5-yl)-1,5,6,8a-tetrahydro[1,3]oxazolo[3,4-a]pyridin-3-one]",41,660
"CN1Cc2c(C3=CCN4C(=O)OC[C@H]4C3)[nH]c3nccc(c23)-c2cc(F)ccc21 [Example 153, (8aR)-7-(10-fluoro-7-methyl-6,7-dihydro-4H-3,4,7-triazadibenzo[cd,f]azulen-5-yl)-1,5,8,8a-tetrahydro[1,3]oxazolo[3,4-a]pyridin-3-one]",66,600
"CN1Cc2c(C3=C[C@H](CO)NCC3)[nH]c3nccc(c23)-c2cc(F)ccc21 [Example 154, [(2R)-4-(10-fluoro-7-methyl-6,7-dihydro-4H-3,4,7-triazadibenzo[cd,f]azulen-5-yl)-1,2,5,6-tetrahydropyridin-2-yl]methanol]",28,56
"CN1Cc2c(C3=C[C@@H](CO)NCC3)[nH]c3nccc(c23)-c2cc(F)ccc21 [Example 155, [(2S)-4-(10-fluoro-7-methyl-6,7-dihydro-4H-3,4,7-triazadibenzo[cd,f]azulen-5-yl)-1,2,5,6-tetrahydropyridin-2-yl]methanol]",41,39
"CN1Cc2c(C3=CCN[C@@H](CO)C3)[nH]c3nccc(c23)-c2cc(F)ccc21 [Example 156, [(2R)-4-(10-fluoro-7-methyl-6,7-dihydro-4H-3,4,7-triazadibenzo[cd,f]azulen-5-yl)-1,2,3,6-tetrahydropyridin-2-yl]methanol]",30,22
"CN(CCO)C(=O)CN1CC=C(c2[nH]c3nccc4c3c2CN(C)c2cc(F)c(F)cc2-4)CC1 [Example 157, 2-[4-(9,10-difluoro-7-methyl-6,7-dihydro-4H-3,4,7-triazadibenzo[cd,f]azulen-5-yl)-3,6-dihydropyridin-1(2H)-yl]-N-(2-hydroxyethyl)-N-methylacetamide]",46,10
"CN1Cc2c(C3=CCNCC3)[nH]c3nccc(c23)-c2ccccc21 [Example 158, 7-methyl-5-(1,2,3,6-tetrahydropyridin-4-yl)-6,7-dihydro-4H-3,4,7-triazadibenzo[cd,f]azulene]",96,20
"CN1Cc2c(C3=CCNCC3)[nH]c3ncc(F)c(c23)-c2ccccc21 [Example 159, 1-fluoro-7-methyl-5-(1,2,3,6-tetrahydropyridin-4-yl)-6,7-dihydro-4H-3,4,7-triazadibenzo[cd,f]azulene]",34,8
"CN1Cc2c(C3=CCN(S(C)(=O)=O)CC3)[nH]c3nccc(c23)-c2ccccc21 [Example 160, 7-methyl-5-[1-(methylsulfonyl)-1,2,3,6-tetrahydropyridin-4-yl]-6,7-dihydro-4H-3,4,7-triazadibenzo[cd,f]azulene]",85,94
"CN1Cc2c(C3=CCN(S(C)(=O)=O)CC3)[nH]c3ncc(F)c(c23)-c2ccccc21 [Example 161, 1-fluoro-7-methyl-5-[1-(methylsulfonyl)-1,2,3,6-tetrahydropyridin-4-yl]-6,7-dihydro-4H-3,4,7-triazadibenzo[cd,f]azulene]",40,65
"CN(C)C(=O)CN1CC=C(c2[nH]c3nccc4c3c2CN(C)c2ccccc2-4)CC1 [Example 162, N,N-dimethyl-2-[4-(7-methyl-6,7-dihydro-4H-3,4,7-triazadibenzo[cd,f]azulen-5-yl)-3,6-dihydropyridin-1(2H)-yl]acetamide]",115,21
"CN(C)C(=O)CN1CC=C(c2[nH]c3ncc(F)c4c3c2CN(C)c2ccccc2-4)CC1 [Example 163, 2-[4-(1-fluoro-7-methyl-6,7-dihydro-4H-3,4,7-triazadibenzo[cd,f]azulen-5-yl)-3,6-dihydropyridin-1(2H)-yl]-N,N-dimethylacetamide]",56,7
"OCC(O)CN1CC=C(c2[nH]c3nccc4c3c2COc2ccc(F)cc2-4)CC1 (stereo not shown) [Example 164, 3-[4-(10-fluoro-4,6-dihydro-7-oxa-3,4-diazadibenzo[cd,f]azulen-5-yl)-3,6-dihydropyridin-1(2H)-yl]propane-1,2-diol]",130,270
"O=C(O)CC1CCC(N2CC=C(c3[nH]c4nccc5c4c3COc3ccc(F)cc3-5)CC2)CC1 (stereo not shown) [Example 165, {4-[4-(10-fluoro-4,6-dihydro-7-oxa-3,4-diazadibenzo[cd,f]azulen-5-yl)-3,6-dihydropyridin-1(2H)-yl]cyclohexyl}acetic acid]",390,970
"CN1Cc2c(C3=CCN([C@H]4CC[C@H](C(=O)O)CC4)CC3)[nH]c3ncc(F)c(c23)-c2cc(F)ccc21 [Example 166, trans-4-[4-(1,10-difluoro-7-methyl-6,7-dihydro-4H-3,4,7-triazadibenzo[cd,f]azulen-5-yl)-3,6-dihydropyridin-1(2H)-yl]cyclohexanecarboxylic acid]",75,8
"CN1Cc2c(C3=CCN([C@H]4CC[C@H](CC(=O)O)CC4)CC3)[nH]c3ncc(F)c(c23)-c2cc(F)ccc21 [Example 167, {trans-4-[4-(1,10-difluoro-7-methyl-6,7-dihydro-4H-3,4,7-triazadibenzo[cd,f]azulen-5-yl)-3,6-dihydropyridin-1(2H)-yl]cyclohexyl}acetic acid]",67,10
"CC[C@H]1c2c(C3=CCN(CC(=O)N(C)C)CC3)[nH]c3nccc(c23)-c2cc(F)ccc2N1C [Example 168, 2-{4-[(6S)-6-ethyl-10-fluoro-7-methyl-6,7-dihydro-4H-3,4,7-triazadibenzo[cd,f]azulen-5-yl]-3,6-dihydropyridin-1(2H)-yl}-N,N-dimethylacetamide]",60,8
"CN1Cc2c(C3=CCN(C4CCC(=CC#N)CC4)CC3)[nH]c3nccc(c23)-c2cc(F)ccc21 (stereo not shown) [Example 173, {4-[4-(10-fluoro-7-methyl-6,7-dihydro-4H-3,4,7-triazadibenzo[cd,f]azulen-5-yl)-3,6-dihydropyridin-1(2H)-yl]cyclohexylidene}acetonitrile]",45,68
"COC(=O)C(C)=C1CCC(N2CC=C(c3[nH]c4nccc5c4c3CN(C)c3ccc(F)cc3-5)CC2)CC1 (stereo not shown) [Example 174, methyl 2-{4-[4-(10-fluoro-7-methyl-6,7-dihydro-4H-3,4,7-triazadibenzo[cd,f]azulen-5-yl)-3,6-dihydropyridin-1(2H)-yl]cyclohexylidene}propanoate]",57,120
"CN1Cc2c(C3=CCN(C4CCC(=CC(=O)OC(C)(C)C)CC4)CC3)[nH]c3nccc(c23)-c2cc(F)ccc21 (stereo not shown) [Example 175, tert-butyl{4-[4-(10-fluoro-7-methyl-6,7-dihydro-4H-3,4,7-triazadibenzo[cd,f]azulen-5-yl)-3,6-dihydropyridin-1(2H)-yl]cyclohexylidene}acetate]",120,490
"CN1Cc2c(C3=CCN(C4CCC(=CC(=O)O)CC4)CC3)[nH]c3nccc(c23)-c2cc(F)ccc21 (stereo not shown) [Example 177, {4-[4-(10-fluoro-7-methyl-6,7-dihydro-4H-3,4,7-triazadibenzo[cd,f]azulen-5-yl)-3,6-dihydropyridin-1(2H)-yl]cyclohexylidene}acetic acid]",58,120
"CN1Cc2c(C3=CCN(CCS(=O)(=O)N(C)C)CC3)[nH]c3nccc(c23)-c2cc(F)ccc21 [Example 178, 2-[4-(10-fluoro-7-methyl-6,7-dihydro-4H-3,4,7-triazadibenzo[cd,f]azulen-5-yl)-3,6-dihydropyridin-1(2H)-yl]-N,N-dimethylethanesulfonamide]",25,40
"CN1Cc2c(C3=CCN(CCS(N)(=O)=O)CC3)[nH]c3nccc(c23)-c2cc(F)ccc21 [Example 179, 2-[4-(10-fluoro-7-methyl-6,7-dihydro-4H-3,4,7-triazadibenzo[cd,f]azulen-5-yl)-3,6-dihydropyridin-1(2H)-yl]ethanesulfonamide]",24,64
"CN1Cc2c(C3=CCN([C@H]4CC[C@H](CC(=O)O)CC4)CC3)[nH]c3ncc(F)c(c23)-c2ccccc21 [Example 180, {trans-4-[4-(1-fluoro-7-methyl-6,7-dihydro-4H-3,4,7-triazadibenzo[cd,f]azulen-5-yl)-3,6-dihydropyridin-1(2H)-yl]cyclohexyl}acetic acid]",73,11
